Measured values taken from US20230181482A1, “LIPIDS FOR DELIVERY OF NUCLEIC ACID SEGMENTS” (AstraZeneca AB, priority 2021, published 2023).

What was measured:
[1] = LNP particle size by dynamic light scattering (Zetasizer Nano ZS); assay type: physicochemical; settings: N/P ratio 3:1, DMPE-PEG2000
Protocol: (§1) A solution of eGFP mRNA (purchased from TriLink Biotechnologies) in citrate buffer was prepared by mixing mRNA dissolved in MilliQ-water, 100 mM citrate buffer (pH 3) and MilliQ-water to give a solution of 50 mM citrate. Lipid solution in ethanol (99.5%) was prepared with four different lipid components: ionizable lipid (see Table 1); cholesterol (Sigma-Aldrich); DSPC (distearoyl phosphatidyl choline, Avanti Polar Lipids Inc); and a polymer-conjugated lipid (see Table 1). The ratio of lipids in all experiments was ionizable lipid/cholesterol/DSPC/polymer-conjugated lipid (50/38.5/10/1.5 mol %). The total concentration of lipids in all experiments was 12.5 mM.
(§2) The mRNA and lipid solutions were mixed in a NanoAssemblr (Precision Nanosystems, Vancouver, BC, Canada) microfluidic mixing system at a mixing ratio of Aq:EtOH=3:1 and a constant flow rate of 12 mL/min. The mRNA in citrate buffer solution was prepared such that, at the time of mixing the ratio between the nitrogen atoms on the ionizable lipid and phosphorus atoms (N/P ratio) on the mRNA chain was either 3:1 or 6:1 (see Table 1).
The first 0.2-0.35 mL and the last 0.05-0.1 mL of the LNP suspension prepared were discarded while the rest of the volume was collected as the sample fraction. The size of the mRNA lipid nanoparticles was determined by dynamic light scattering measurements using a Zetasizer Nano ZS from Malvern Instruments Ltd, giving directly the z-average particle diameter. The number-weighted particle size distributions and averages were calculated using a particle refractive index of 1.45.

[2] = mRNA encapsulation efficiency of LNP formulations (Quant-it Ribogreen assay with Triton-X100); assay type: physicochemical; settings: N/P ratio 3:1, DMPE-PEG2000
Protocol: as §1, §2
The final mRNA concentration and encapsulation efficiency percentage (% EE) was measured by Quant-it Ribogreen Assay Kit (ThermoFischer Scientific Inc.) using Triton-X100 to disrupt the LNPs. The mRNA encapsulation efficiency was determined according to the following equation: […]

Female BALB/c mice = experiment: eGFP expression in the liver at 24 hours after intravenous administration of LNP formulations to mouse (ELISA); assay type: in vivo; settings: LNP N/P 3:1, DMPE-PEG2000
Text: Female BALB/c mice were purchased (SPF (Beijing) Laboratory Animal Technology Co. Ltd.) and on arrival were caged in groups of 4 on corncob bedding, with normal diet and were provided tap drinking water ad libitum that was purified and autoclaved before being offered to the animal. The environment was maintained at a target temperature of […] and relative humidity of 40-80%, with a 12-hour light/dark cycle. Animals were acclimatised to the housing conditions for at least 7 days prior to any experimental procedures and were approximately 6-8 weeks of age at the start of dosing
Animals were assigned to respective groups such that the mean body weights for each treatment groups will be equal. N=4 for each treatment group.
Formulations 1, 3, 4, 5, and 6 from Example 58 were each dosed intravenously: Each mouse was removed from its cage and restrained, and then dosed with a slow IV bolus of a formulation in the lateral tail vein at a dose […] of 0.3 mg/kg.
All animals were sacrificed 24 hours after dosing and flowing blood sampling the liver for the animals dosed by the IV route and the liver and muscle at the dose site for the IM dosed animals were harvested for eGFP analysis by ELISA.
Additional LNP formulations were prepared according to the procedures described in Example 46. These formulations were tested using the same protocol as described herein. The results of eGFP expression in the liver at 24 hours after intravenous administration of the formulations were summarized in Tables 3, 4, 5 and 6 below.

<d>N (nm) ([1]; Table 4)	<d>Z (nm) ([1]; Table 4)	% EE ([2]; Table 4)	<d>N (nm) ([1]; Table 5)	<d>Z (nm) ([1]; Table 5)	% EE ([2]; Table 5)	SMILES	Liver eGFP protein (ng/g tissue) (Female BALB/c mice; Table 4, 0.3 mg/kg)	Liver eGFP protein (ng/g tissue) (Female BALB/c mice; Table 5, 0.3 mg/kg)
45 nm	62 nm	96%				CCCCCCCCC(CCCCCCCC)OC(=O)CCCCCCC(CCCCCCC(=O)OC(CCCCCCCC)CCCCCCCC)NC1CC2(COC2)C1 [Compound 23, di(heptadecan-9-yl) 8-((2-oxaspiro[3.3]heptan-6-yl)amino)pentadecanedioate]	2318.8 ng/g tissue	
52 nm	71 nm	94%				CCCCCCCCCOC(=O)CCCCCCC(CCCCCCC(=O)OC(CCCCCCCC)CCCCCCCC)NC1CC2(COC2)C1 (stereo not shown) [Compound 24, 1-(heptadecan-9-yl) 15-nonyl 8-((2-oxaspiro[3.3]heptan-6-yl)amino)pentadecanedioate]	748.9 ng/g tissue	
50 nm	69 nm	94%				CCCCCCCCC(C)OC(=O)CCCCCCC(CCCCCCC(=O)OC(CCCCCCCC)CCCCCCCC)NC1CC2(COC2)C1 (stereo not shown) [Compound 25, 1-(decan-2-yl) 15-(heptadecan-9-yl) 8-((2-oxaspiro[3.3]heptan-6-yl)amino)pentadecanedioate]	15961.7 ng/g tissue	
50 nm	75 nm	94%				CCCCCCCCC(CCCCCCCC)OC(=O)CCCCCCC(CCCCCCC(=O)OCCCCCCCC(C)C)NC1CC2(COC2)C1 (stereo not shown) [Compound 26, 1-(heptadecan-9-yl) 15-(8-methylnonyl) 8-((2-oxaspiro[3.3]heptan-6-yl)amino)pentadecanedioate]	824.8 ng/g tissue	
55 nm	98 nm	97%				CCCCCCCCC(CCCCCCCC)OC(=O)CCCCCCC(CCCCCCC(=O)OCCC(CCCCCCC)CCCCCCC)NC1CC2(COC2)C1 (stereo not shown) [Compound 27, 1-(heptadecan-9-yl) 15-(3-heptyldecyl) 8-((2-oxaspiro[3.3]heptan-6-yl)amino)pentadecanedioate]	4982.6 ng/g tissue	
80 nm	129 nm	97%				CCCCCCCC(CCCCCCC)COC(=O)CCCCCCC(CCCCCCC(=O)OCC(CCCCCCC)CCCCCCC)NC1CC2(COC2)C1 [Compound 28, Bis(2-heptylnonyl) 8-((2-oxaspiro[3.3]heptan-6-yl)amino)pentadecanedioate]	9557.1 ng/g tissue	
51 nm	71 nm	90%				CCCCCCCCC(C)OC(=O)CCCCCCC(CCCCCCC(=O)OCC(CCCCCCC)CCCCCCC)NC1CC2(COC2)C1 (stereo not shown) [Compound 29, 1-(decan-2-yl) 15-(2-heptylnonyl) 8-((2-oxaspiro[3.3]heptan-6-yl)amino)pentadecanedioate]	1288.4 ng/g tissue	
47 nm	62 nm	94%				CCCCCCCCC(CCCCCCCC)OC(=O)CCCCCCCC(CCCCCCCC(=O)OC(CCCCCCCC)CCCCCCCC)NC1CC2(COC2)C1 [Compound 31, Di(heptadecan-9-yl) 9-((2-oxaspiro[3.3]heptan-6-yl)amino)heptadecanedioate]	1319.3 ng/g tissue	
56 nm	72 nm	94%				CCCCCCCCC(C)OC(=O)CCCCCCCC(CCCCCCCC(=O)OC(CCCCCCCC)CCCCCCCC)NC1CC2(COC2)C1 (stereo not shown) [Compound 32, 1-(decan-2-yl) 17-(heptadecan-9-yl) 9-((2-oxaspiro[3.3]heptan-6-yl)amino)heptadecanedioate]	16518.2 ng/g tissue	
53 nm	67 nm	97%				CCCCCCCCC(CCCCCCCC)OC(=O)CCCCCCCC(CCCCCCCC(=O)OCC(CCCCCCC)CCCCCCC)NC1CC2(COC2)C1 (stereo not shown) [Compound 33, 1-(heptadecan-9-yl) 17-(2-heptylnonyl) 9-((2-oxaspiro[3.3]heptan-6-yl)amino)heptadecanedioate]	1056.2 ng/g tissue	
51 nm	68 nm	96%				CCCCCCC(CCCCCC)COC(=O)CCCCCCCC(CCCCCCCC(=O)OCC(CCCCCC)CCCCCC)NC1CC2(COC2)C1 [Compound 34, Bis(2-hexyloctyl) 9-((2-oxaspiro[3.3]heptan-6-yl)amino)heptadecanedioate]	11015.4 ng/g tissue	
			59 nm	77 nm	95%	CCCCCCCCC(C)OC(=O)CCCCCCCC(CCCCCCCC(=O)OC(CCCCCCCC)CCCCCCCC)NCC1CCOCC1 (stereo not shown) [Compound 35, 1-(decan-2-yl) 17-(heptadecan-9-yl) 9-(((tetrahydro-2H-pyran-4-yl)methyl)amino)heptadecanedioate]		5974.6 ng/g tissue
			57 nm	73 nm	96%	CCCCCCCCC(C)OC(=O)CCCCCCCC(CCCCCCCC(=O)OC(CCCCCCCC)CCCCCCCC)NCC1CCOC1 (stereo not shown) [Compound 36, 1-(decan-2-yl) 17-(heptadecan-9-yl) 9-(((tetrahydrofuran-3-yl)methyl)amino)heptadecanedioate]		6133.5 ng/g tissue
			47 nm	60 nm	93%	CCCCCCCCC(C)OC(=O)CCCCCCCC(CCCCCCCC(=O)OC(CCCCCCCC)CCCCCCCC)NCC1COC1 (stereo not shown) [Compound 37, 1-(decan-2-yl) 17-(heptadecan-9-yl) 9-((oxetan-3-ylmethyl)amino)heptadecanedioate]		1225.5 ng/g tissue
			61 nm	76 nm	97%	CCCCCCCCC(CC)OC(=O)CCCCCCCC(CCCCCCCC(=O)OC(CCCCCCCC)CCCCCCCC)NC1CC2(COC2)C1 (stereo not shown) [Compound 38, 1-(heptadecan-9-yl) 17-(undecan-3-yl) 9-((2-oxaspiro[3.3]heptan-6-yl)amino)heptadecanedioate]		9730.7 ng/g tissue
			55 nm	69 nm	97%	CCCCCCCCC(CC)OC(=O)CCCCCCCC(CCCCCCCC(=O)OC(CCCCCCCC)CCCCCCCC)NCC1CCOCC1 (stereo not shown) [Compound 39, 1-(heptadecan-9-yl) 17-(undecan-3-yl) 9-(((tetrahydro-2H-pyran-4-yl)methyl)amino)heptadecanedioate]		3383.8 ng/g tissue
			53 nm	70 nm	97%	CCCCCCCCC(CC)OC(=O)CCCCCCCC(CCCCCCCC(=O)OC(CCCCCCCC)CCCCCCCC)NCC1CCOC1 (stereo not shown) [Compound 40, 1-(heptadecan-9-yl) 17-(undecan-3-yl) 9-(((tetrahydrofuran-3-yl)methyl)amino)heptadecanedioate]		3658.4 ng/g tissue
			54 nm	69 nm	98%	CCCCCCCCC(CC)OC(=O)CCCCCCCC(CCCCCCCC(=O)OC(CCCCCCCC)CCCCCCCC)NCC1COC1 (stereo not shown) [Compound 41, 1-(heptadecan-9-yl) 17-(undecan-3-yl) 9-((oxetan-3-ylmethyl)amino)heptadecanedioate]		7390.2 ng/g tissue
			66 nm	84 nm	94%	CCCCCCCCC(CCCCCCCC)OC(=O)CCCCCCCC(CCCCCCCC(=O)OCCC(C)CCCCCC)NC1CC2(COC2)C1 (stereo not shown) [Compound 42, 1-(heptadecan-9-yl) 17-(3-methylnonyl) 9-((2-oxaspiro[3.3]heptan-6-yl)amino)heptadecanedioate]		1868.2 ng/g tissue
